Where only a bound is given, the exact number is not on record here.

One experiment addresses T1, CLK2 (Homo sapiens, UniProt P49760).
T1 construct: purchased Carna Biosciences 04-127
Briefly: Biochemical assay for inhibitors of CLK2 kinase activity (ADP-Glo). The following applies: 20 nM CLK2, 50 μM peptide substrate, 100 μM ATP, read-out: Assay 2: CLK2 Enzyme IC50. Background: ADP-Glo first removes unused ATP, then detects ADP through luciferase.

Another experiment has as its target T2, CK2α (Homo sapiens, UniProt P68400).
T2 construct: CK2α (residues 2-329) was produced in Escherichia coli BL21 (DE3) for kinase activity screening; His6 (N, cleaved yes); made in house; host or cells: Escherichia coli BL21 (DE3)
T2 sequence (P68400 2-329): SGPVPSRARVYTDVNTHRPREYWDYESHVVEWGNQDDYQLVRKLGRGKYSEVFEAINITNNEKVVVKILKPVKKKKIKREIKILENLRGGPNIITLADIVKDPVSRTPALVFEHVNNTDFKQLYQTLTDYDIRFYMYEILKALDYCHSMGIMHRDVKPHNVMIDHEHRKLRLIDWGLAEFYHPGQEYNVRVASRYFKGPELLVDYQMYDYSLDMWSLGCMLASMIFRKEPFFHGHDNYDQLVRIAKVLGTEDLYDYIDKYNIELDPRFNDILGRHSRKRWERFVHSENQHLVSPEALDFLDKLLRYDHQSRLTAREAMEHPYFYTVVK
Put plainly: Biochemical assay for inhibitors of CK2α kinase activity (ADP-Glo). The conditions noted are these: 0.2 nM CK2α, 50 μM peptide substrate, 15 μM ATP, read-out: Assay 1: CK2α Enzyme IC50.

The target in the next experiment is T3, intracellular CK2α (Homo sapiens, UniProt P19784).
T3 construct: host or cells: HCT116 (ATCC CCL-247)
T3 sequence (P19784 whole entry): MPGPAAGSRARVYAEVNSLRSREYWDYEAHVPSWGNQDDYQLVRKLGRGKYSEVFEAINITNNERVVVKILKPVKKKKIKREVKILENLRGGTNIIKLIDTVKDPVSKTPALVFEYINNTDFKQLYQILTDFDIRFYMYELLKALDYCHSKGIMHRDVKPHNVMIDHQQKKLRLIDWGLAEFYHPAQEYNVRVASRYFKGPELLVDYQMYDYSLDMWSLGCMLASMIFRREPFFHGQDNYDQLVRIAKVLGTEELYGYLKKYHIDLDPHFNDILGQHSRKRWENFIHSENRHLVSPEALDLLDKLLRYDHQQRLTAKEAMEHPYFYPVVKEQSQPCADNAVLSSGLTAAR
Put plainly: Cell-based NanoBRET assay for inhibitor binding to intracellular CK2α. The conditions noted are these: HCT116 cells transiently transfected with CSNK2A2-NanoLuc fusion vector; Tracer K-5; 2 h; read-out: Assay 3: NanoBRET ™ assay for binding to intracellular CK2α. The procedure, abridged: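 Apparent affinity came from BRET ratio (acceptor/donor ×1,000), with donor read at 450 nm and acceptor at 610 or 630 nm. Compounds competed off a tracer added at fixed concentration to cells carrying a NanoLuc-CK2α fusion.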

T1 sequence (P49760 whole entry): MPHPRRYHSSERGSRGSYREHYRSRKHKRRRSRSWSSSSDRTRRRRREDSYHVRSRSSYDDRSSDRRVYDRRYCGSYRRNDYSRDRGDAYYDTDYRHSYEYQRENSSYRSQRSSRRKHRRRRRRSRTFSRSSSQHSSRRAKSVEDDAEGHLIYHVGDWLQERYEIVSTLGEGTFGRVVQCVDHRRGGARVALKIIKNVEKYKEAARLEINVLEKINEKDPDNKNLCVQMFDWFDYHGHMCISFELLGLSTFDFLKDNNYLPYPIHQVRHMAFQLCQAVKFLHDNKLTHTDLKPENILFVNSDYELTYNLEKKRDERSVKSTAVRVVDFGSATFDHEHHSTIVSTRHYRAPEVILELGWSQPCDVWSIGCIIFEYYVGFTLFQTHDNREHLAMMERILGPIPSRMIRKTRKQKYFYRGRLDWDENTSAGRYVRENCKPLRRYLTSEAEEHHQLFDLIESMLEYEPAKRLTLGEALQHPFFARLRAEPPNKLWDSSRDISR

Consider `O=C(CCNCc1cccc(OCCO)c1)NCCCNc1cc(-n2cnnc2)cc2[nH]ncc12` [Example 42, N-(3-((6-(4H-1,2,4-triazol-4-yl)-1H-indazol-4-yl)amino)propyl)-3-((3-(2-hydroxyethoxy)benzyl)amino)propanamide], for which the IC50 at CLK2 is 83.8 nM; on CK2α, 6.94 nM; at intracellular CK2α it was above 50000 nM.
Taken in the same sequence, the figures for `CN(CCCNc1cc(-n2cnnc2)cc2[nH]ncc12)C(=O)CCNCc1ccc(OC(F)(F)F)c(Cl)c1` [Example 20, N-(3-((6-(4H-1,2,4-triazol-4-yl)-1H-indazol-4-yl)amino)propyl)-3-((3-chloro-4-(trifluoromethoxy)benzyl)amino)-N-methylpropanamide] were 158 nM, 23.5 nM and 3300 nM.
The like results for `O=C(CCNCc1ccc(-c2ccccc2)c(Cl)c1)NCCCNc1cc(-c2cccnc2)cc2[nH]ncc12` [Example 26, 3-(((2-chloro-[1,1'-biphenyl]-4-yl)methyl)amino)-N-(3-((6-(pyridin-3-yl)-1H-indazol-4-yl)amino)propyl)propanamide] were, in that order, 4460 nM, 20.4 nM and 875 nM.
Consider `OCc1cc(CNCCCCOC2CN(c3cc(-c4cnoc4)cc4[nH]ncc34)C2)cc(C(F)(F)F)c1` [Example 120, (3-(((4-((1-(6-(isoxazol-4-yl)-1H-indazol-4-yl)azetidin-3-yl)oxy)butyl)amino)methyl)-5-(trifluoromethyl)phenyl)methanol], for which the IC50 amounted to 141 nM on CLK2, 84.6 nM at CK2α and 3250 nM at intracellular CK2α.
